Experimental data from ChEMBL document CHEMBL3507680, “University of Dundee, Gates Library screen for HepG2 cell viability”.
“And” between values parts separate entries of the source, which are not always exact repeats. Equal values may be shown once.

Key:
[1] = Human HepG2 cell viability assay in 384 well format; format: toxicity, cell-based; set-up: dose 125 nL, time 70.5 hour; concentration not given beside the values; settings: HepG2 cells, read-out: Inhibition
[2] = Human HepG2 cell viability dose-response assay; format: toxicity, cell-based

| SMILES | cytotoxicity at 70.5 h [1] [%] | BOTTOM [2] | HILLSLOPE [2] | TOP [2] | pXC50 [2] |
| --- | --- | --- | --- | --- | --- |
| COc1cc(NC(=O)C2CC(=O)N(c3cccc(Br)c3)C2)ncn1 (centres undefined) | 91.5 | 13.61 and 20.88 | 5.533 and 3.735 | 100.7 and 101.2 | 5.491 and 5.506 |
| c1cncc(CN2CCCn3nnc(CN4CCCCC4)c3C2)c1 | 65.6 | 0 | 0 | 0 | < 4.53 |
| O=C(C[C@@H]1COC[C@H]2CN(C3CCOCC3)C[C@@H]12)Nc1cnccn1 | 76.4 | 0 | 0 | 0 | < 4.53 |
| O=C(Cn1cc(-c2ccccc2)ncc1=O)Nc1nc(C2CC2)n[nH]1 | 99.8 | -8.692 and -5.853 | 2.68 and 2.241 | 101 and 102.4 | 5.614 and 5.594 |
| CCS(=O)(=O)N1CCc2ccc(NC(=O)Nc3cccc(SC)c3)cc21 | 63.9 | -6.506 and -6.611 | 1.266 and 1.157 | 100 | 5.029 and 4.966 |
| CSc1ccc(NC(=O)Nc2ccc3c(c2)N(S(C)(=O)=O)CC3)cc1 | 68.5 | -10.17 and -8.332 | 0.8924 and 0.8709 | 100 | 4.975 and 4.922 |
| CCc1ccc(-c2cc(C(F)(F)F)nc(N3CCC(N)CC3)n2)cc1 | 101 | 0.817 and 1.062 | 8.779 and 6.129 | 102.2 and 102.5 | 5.566 and 5.542 |
| Cc1cccc(C)c1Nc1noc2c1CN(C(=O)c1ccnn1C)CC2 | 69.8 | -5.714 and -2.53 | 1.878 and 1.75 | 100 | 4.825 and 4.807 |
| Cc1cccc(CN2CCCC2c2cccc(Nc3nccs3)n2)c1 (centres undefined) | 84.1 |  | 2.773 and 1.557 | 82.62 and 100 | 6.512 and 6.485 |
| CC(C)Nc1cc(-c2c[nH]nc2C2CCN(C(=O)C3CC3)C2)ccn1 (centres undefined) | 96.7 |  | 3.535 and 2.719 | 97.3 and 97.69 | 6.519 and 6.486 |
| CC(C)CNc1cc(-c2c[nH]nc2C2CCN(C(=O)C3CC3)C2)ccn1 (centres undefined) | 95.1 | -0.825 and -1.513 | 7.855 and 3.586 | 97.39 and 97.86 | 6.385 and 6.436 |
| COc1ccc(CNC(Cc2ccsc2)c2ccc(C)cn2)c(OC)c1 (centres undefined) | 85.3 |  | 2.726 and 2.464 | 91.22 and 91.65 | 5.292 and 5.344 |
| O=C(c1cccc2cccnc12)N1CC[C@@]2(CCCO2)[C@@H](O)C1 | 74.5 | -1.598 and -1.635 | 1.904 and 1.967 | 100 | 4.773 and 4.744 |
| CC(C)c1cc(NC(=O)Cn2cnc3ccccc3c2=O)[nH]n1 | 104 | -4.443 and -6.453 | 2.259 and 2.3 | 101.3 and 101.4 | 5.61 and 5.595 |
| CC(C)OCCN1CCC(Nc2nccnc2C#N)CC1 | 62.9 | -6.463 and -12.72 | 1.108 and 0.9682 | 100 | 5.071 and 5.086 |
| CN(C(=O)[C@H]1CSCN1C(=O)OC(C)(C)C)C1CC1 | 73.6 | 0 | 0 | 0 | < 4.53 |
| Cc1cc(C)cc(C(=O)NCCCNc2ncccn2)c1 | 101 | -7.868 and -9.506 | 17.28 and 6.436 | 100.1 and 99.9 | 5.413 |
| CC(C)c1ccc(CN2C(=O)C3(CCNCC3)Nc3ccccc32)cc1 | 105 | -7.959 and -9.531 | 9.317 and 9.377 | 102.3 and 101.9 | 4.989 and 5.005 |
| Clc1ccccc1C1(c2ccnc(C3CCCC3)n2)CCNCC1 | 73 | 17.52 and 27.16 | 2.801 and 2.528 | 108.2 and 108.3 | 5.086 and 5.104 |
| COc1ccccc1N1CCN(C(=O)CSCC2CC2)C(C)C1 (centres undefined) | 97.2 | 0 | 0 | 0 | < 4.53 |
| C=Cc1ccc(CN2C(=O)C3(CCNCC3)Nc3ccccc32)cc1 | 102 | -4.877 and -3.437 | 10.74 and 12.71 | 102 | 5.033 and 5.016 |
| O=C(O)c1cc(S(=O)(=O)Nc2cc(F)cc(F)c2)cc2c1OCCO2 | -4.5 |  |  |  |  |
| c1cnnc(N2CCCC2CNc2ncnc3ccsc23)c1 (centres undefined) | -1.29 |  |  |  |  |
| CC(C)N1CCN(C(=O)Cc2csc(-c3ccco3)n2)CC1 | -0.696 |  |  |  |  |
| CNC(=O)CS(=O)(=O)Cc1cc(Cl)c2c(c1)OCCCO2 | 25.7 |  |  |  |  |
| COc1ccc(S(=O)(=O)NCc2cccnc2N(C)C)cc1F | 40.3 |  |  |  |  |
| Cc1csc(NC(=O)CN2CCC(c3ccnn3CCO)CC2)n1 | 33.6 |  |  |  |  |

| SMILES | cytotoxicity at 70.5 h [1] [%] | BOTTOM [2] | HILLSLOPE [2] | TOP [2] | pXC50 [2] |
| --- | --- | --- | --- | --- | --- |
| c1cnn(CC2CN(Cc3ccc(-n4ccnc4)cc3)CCO2)c1 (centres undefined) | 12.9 |  |  |  |  |
| CCOc1ccnc(N2CCN(C(=O)c3cc(Cl)c[nH]3)CC2)n1 | 25.8 |  |  |  |  |
| Cc1cnn(CCC(=O)N2CCN(c3nc(C)cs3)CC2)c1 | 30.3 |  |  |  |  |
| c1cnn(-c2ccc(CN3CCOC(Cn4cncn4)C3)cc2)c1 (centres undefined) | 18.2 |  |  |  |  |
| O=C(CN1CCCCC1Cn1cncn1)NCCC1=CCCCC1 (centres undefined) | 32 |  |  |  |  |
| Nc1cc2c(nn1)CCN(C(=O)CC1CCCC1)C2 | 3.78 |  |  |  |  |
| COc1c(C2CCCN2C(=O)Cc2c(C)noc2C)c(C)nn1C (centres undefined) | 11 |  |  |  |  |
| CS(=O)(=O)NCCCN1CCCC1Cc1ccccc1 (centres undefined) | 4.23 |  |  |  |  |
| CS(=O)(=O)NCCCN1CCCCC1c1cc2ccccc2[nH]1 (centres undefined) | 33.9 |  |  |  |  |
| O=C(CN1CCCCC1Cn1cncn1)NCc1ccccn1 (centres undefined) | -4.27 |  |  |  |  |
| CN(Cc1ccc(F)cc1)C(=O)CN1CCCC(Cn2cncn2)C1 (centres undefined) | 3.89 |  |  |  |  |
| c1ccc(CN2CCCC2Cn2cncn2)nc1 (centres undefined) | 7.22 |  |  |  |  |
| CN1CCOC(CNCc2coc(-c3cccs3)n2)C1 (centres undefined) | 27.5 |  |  |  |  |
| c1cnn(CCNCc2nnc(C3CC3)o2)c1 | 48.9 |  |  |  |  |
| CN(C)CC1CN(c2cnc3ccccc3n2)CCO1 (centres undefined) | 11.3 |  |  |  |  |
| COc1ccc(C(O)CNc2c(C#N)c(=O)n(C)c(=O)n2C)cc1 (centres undefined) | 3.78 |  |  |  |  |
| COc1cc(C(=O)Nc2nc(C)no2)ccc1C | 36.1 |  |  |  |  |
| O=C1C(NS(=O)(=O)c2cc(F)cc(F)c2)CCN1Cc1ccccc1 (centres undefined) | 23.4 |  |  |  |  |
| COc1ccc(C2=CCN(C(=O)CN(C)Cc3ccoc3)CC2)cc1 | 49.4 |  |  |  |  |
| CCCNC(=O)C1CCN(Cc2csc(C(C)(C)C)n2)CC1 | -9.45 |  |  |  |  |
| Cc1cc(CN2CCN(C(c3ccccc3)c3ccccc3)CC2)no1 | 1.19 |  |  |  |  |
| CC(C)(C)c1nnc(CN2CCOC(Cn3cccn3)C2)o1 (centres undefined) | 5.79 |  |  |  |  |
| Cc1cccc(C2(CNC(=O)CCNS(C)(=O)=O)CCCC2)c1 | 27 |  |  |  |  |
| CC(C)c1n[nH]c(C(=O)Nc2ccncc2)c1Br | 3.41 |  |  |  |  |
| Cc1nc(CN2CCCC(NCCc3ccccc3Cl)C2)no1 (centres undefined) | -6.15 |  |  |  |  |
| CCCNC(=O)CN1CCN(Cc2csc(C(C)(C)C)n2)CC1 | 4.04 |  |  |  |  |
| CCc1n[nH]c(C2CN(C(=O)c3cnc(C)s3)CCO2)n1 (centres undefined) | 23.1 |  |  |  |  |

| SMILES | cytotoxicity at 70.5 h [1] [%] | BOTTOM [2] | HILLSLOPE [2] | TOP [2] | pXC50 [2] |
| --- | --- | --- | --- | --- | --- |
| CCN1CCN(C2CCN(Cc3cc(C)on3)CC2)C1=O | 49.1 |  |  |  |  |
| O=C(CCc1ccc(Cl)s1)N1CCCC(n2cncn2)C1 (centres undefined) | 11.3 |  |  |  |  |
| CN1CCOC(CNCc2nc(-c3ccccc3)cs2)C1 (centres undefined) | 9.31 |  |  |  |  |
| Cc1noc(C(C)C)c1C(=O)NCC(c1ccsc1)N(C)C (centres undefined) | 4.78 |  |  |  |  |
| CC(O)CN1CCN(Cc2nnc(C3CC3)o2)CC1 (centres undefined) | -4 |  |  |  |  |
| CN(Cc1nc(-c2ccco2)no1)C1CCCN(c2cccnn2)C1 (centres undefined) | -14.4 |  |  |  |  |
| Cc1nc(CSCCC(=O)NCc2cccnc2N(C)C)cs1 | -13.6 |  |  |  |  |
| COc1cccc(CNC(=O)N2CCN(Cc3cc(C)on3)CC2)c1 | -20.5 |  |  |  |  |
| CCc1c(C(=O)NC2CCS(=O)(=O)C2)cnn1-c1ccc(F)cc1 (centres undefined) | -22.6 |  |  |  |  |
| CCOc1ccc(C#N)cc1NCC(=O)Nc1cc(F)ccc1F | 6.71 |  |  |  |  |
| CCOc1ccc(C#N)cc1NCC(=O)Nc1cc(C)no1 | -14.1 |  |  |  |  |
| CCc1c(C(=O)NCC(=O)OCC2CC2)cnn1-c1ccc(C)cc1 | 27.6 |  |  |  |  |
| Cc1cc(CNC(=O)N2CCCN(Cc3ccccc3)CC2)no1 | -9.16 |  |  |  |  |
| CCN(CC1CCCO1)C(=O)Nc1ccc(F)cc1OC (centres undefined) | -8.02 |  |  |  |  |
| c1ccc(-c2cnc(CN3CCCC3Cn3cncn3)o2)cc1 (centres undefined) | -14.6 |  |  |  |  |
| CC(C)(C)c1nnc(CN2CCN(CC(O)c3ccccc3)CC2)o1 (centres undefined) | -11.1 |  |  |  |  |
| Cc1cccc(NC2CCN(C(=O)Nc3cccc4[nH]ccc34)CC2)n1 | -8.86 |  |  |  |  |
| CCC(O)CN1CCN(C(=O)c2cccn2Cc2ccccc2)CC1 (centres undefined) | -10.3 |  |  |  |  |
| Fc1cccc(-c2nc(CN3CCCCC3Cn3cncn3)co2)c1 (centres undefined) | -15.4 |  |  |  |  |
| CN(Cc1ccc(F)cc1)C(=O)NCc1nnc2n1CCCCC2 | 33.6 |  |  |  |  |
| COCCCN1CCc2cncnc2C1 | -18.2 |  |  |  |  |
| O=C(c1cccc2c1OCO2)N1CCCC1c1noc(C2CC2)n1 (centres undefined) | 31.3 |  |  |  |  |
| Cc1nc(Nc2nccs2)cc(C2CCCN2)n1.Cl (centres undefined) | 101 | 11.4 and 11.68 | 4.445 and 3.614 | 100.1 and 100.5 | 5.52 and 5.57 |
| COc1nn(C)c2c1CCCN(C(=O)c1ccc3c(c1)OCO3)C2.O=C(O)C(F)(F)F | 77.9 | 0 | 0 | 0 | < 4.53 |
| COc1c(-c2ccc(O)cc2)oc2cc(O)cc(O)c2c1=O [ISOKAEMPFERIDE] | -8.89 |  |  |  |  |
| CCCNC(=O)C(C)Nc1ccc(OCC)cc1 (centres undefined) [PROPETAMIDE] | -8.27 |  |  |  |  |
